Experiment [1] has as its target α4 with wild-type β2 nAChR, (α4)2(β2)3 (Homo sapiens, UniProt P17787+P43681). The experiment is described as follows: Two-electrode voltage clamp of receptors expressed in Xenopus oocytes. It is filed as cell-based.
Another experiment deals with α4 with β2S113R nAChR (Homo sapiens, UniProt P17787+P43681, S138R). The experiment is described as above. It is filed as cell-based.
For the next experiment, the target named is α4 with β2F119Q nAChR (Homo sapiens, UniProt P17787+P43681, F144Q). Described as above. It is filed as cell-based.
α4 with β2F119Q nAChR, sequence (P43681 29-627, stated change not applied): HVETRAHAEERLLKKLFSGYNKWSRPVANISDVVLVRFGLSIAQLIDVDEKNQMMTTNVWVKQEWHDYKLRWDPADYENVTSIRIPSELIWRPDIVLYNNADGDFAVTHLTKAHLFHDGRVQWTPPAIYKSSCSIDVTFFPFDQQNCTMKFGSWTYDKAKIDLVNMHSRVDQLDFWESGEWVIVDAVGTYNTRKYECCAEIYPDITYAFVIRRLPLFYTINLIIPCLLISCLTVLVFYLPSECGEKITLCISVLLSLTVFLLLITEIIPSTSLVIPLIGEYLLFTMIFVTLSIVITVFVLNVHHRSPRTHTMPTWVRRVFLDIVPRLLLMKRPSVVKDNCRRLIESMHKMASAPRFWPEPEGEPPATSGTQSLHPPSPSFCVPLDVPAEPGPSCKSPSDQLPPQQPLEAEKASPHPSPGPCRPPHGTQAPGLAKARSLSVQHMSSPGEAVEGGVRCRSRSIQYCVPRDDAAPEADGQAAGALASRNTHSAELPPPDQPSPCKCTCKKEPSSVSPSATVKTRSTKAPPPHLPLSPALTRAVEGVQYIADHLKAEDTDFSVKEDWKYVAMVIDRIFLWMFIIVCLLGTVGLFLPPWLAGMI
α4 with β2F119Q nAChR, sequence (P17787 26-502 F144Q): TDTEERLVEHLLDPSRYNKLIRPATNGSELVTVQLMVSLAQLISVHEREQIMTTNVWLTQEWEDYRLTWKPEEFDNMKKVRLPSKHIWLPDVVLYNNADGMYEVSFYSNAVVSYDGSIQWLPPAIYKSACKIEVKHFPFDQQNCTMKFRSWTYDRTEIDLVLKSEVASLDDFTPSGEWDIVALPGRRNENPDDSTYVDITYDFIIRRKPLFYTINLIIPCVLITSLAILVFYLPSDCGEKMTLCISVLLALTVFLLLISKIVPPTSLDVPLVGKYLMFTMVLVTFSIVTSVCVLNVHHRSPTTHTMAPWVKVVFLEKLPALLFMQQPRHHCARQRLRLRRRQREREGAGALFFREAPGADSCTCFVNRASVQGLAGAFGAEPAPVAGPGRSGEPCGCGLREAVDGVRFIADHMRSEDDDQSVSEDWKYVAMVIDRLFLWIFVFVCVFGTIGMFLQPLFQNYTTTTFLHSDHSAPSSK
The target of a further experiment is α4β4 receptor. The conditions noted are these: read-out: IC50 inhibiting binding of [3H]epibatidine; cited from earlier work.
The subject of the next experiment is α4β2 and α4β4 nAChRs. Conditions: range over both agonists and both receptors; cited from earlier work.
The target in experiment [2] is nicotinic (α4)2(β2)3 receptors. The conditions noted are these: cited from earlier work.
For experiment [3], the target named is α4β2F119Q, α4β2S113R and wild-type (WT) hα4β2 receptors. Details: species or system human. Conditions: read-out: [3H]epibatidine binding affinities; range over α4β2F119Q, α4β2S113R and WT hα4β2 transiently expressed in HEK 293 cells.
The target of a further experiment is rat α4β4 nAChRs (Rattus norvegicus, UniProt P09483+P12392). It is filed as binding.
rat α4β4 nAChRs, sequence (P09483 31-630): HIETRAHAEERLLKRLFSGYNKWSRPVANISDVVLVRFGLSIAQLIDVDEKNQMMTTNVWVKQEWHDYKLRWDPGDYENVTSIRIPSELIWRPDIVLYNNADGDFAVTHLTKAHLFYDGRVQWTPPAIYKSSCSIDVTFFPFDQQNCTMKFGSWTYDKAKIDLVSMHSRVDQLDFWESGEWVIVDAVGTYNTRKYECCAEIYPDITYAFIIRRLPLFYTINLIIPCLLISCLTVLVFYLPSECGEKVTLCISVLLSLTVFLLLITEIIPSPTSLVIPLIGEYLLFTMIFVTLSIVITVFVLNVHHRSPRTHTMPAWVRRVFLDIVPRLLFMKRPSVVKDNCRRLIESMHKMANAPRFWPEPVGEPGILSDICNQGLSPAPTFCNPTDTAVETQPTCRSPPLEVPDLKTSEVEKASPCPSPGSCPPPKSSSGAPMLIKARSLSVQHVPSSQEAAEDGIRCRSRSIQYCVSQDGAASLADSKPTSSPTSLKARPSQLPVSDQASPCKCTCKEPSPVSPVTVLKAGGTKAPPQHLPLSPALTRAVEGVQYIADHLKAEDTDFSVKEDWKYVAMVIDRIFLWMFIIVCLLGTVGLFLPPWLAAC
rat α4β4 nAChRs, sequence (P12392 25-495): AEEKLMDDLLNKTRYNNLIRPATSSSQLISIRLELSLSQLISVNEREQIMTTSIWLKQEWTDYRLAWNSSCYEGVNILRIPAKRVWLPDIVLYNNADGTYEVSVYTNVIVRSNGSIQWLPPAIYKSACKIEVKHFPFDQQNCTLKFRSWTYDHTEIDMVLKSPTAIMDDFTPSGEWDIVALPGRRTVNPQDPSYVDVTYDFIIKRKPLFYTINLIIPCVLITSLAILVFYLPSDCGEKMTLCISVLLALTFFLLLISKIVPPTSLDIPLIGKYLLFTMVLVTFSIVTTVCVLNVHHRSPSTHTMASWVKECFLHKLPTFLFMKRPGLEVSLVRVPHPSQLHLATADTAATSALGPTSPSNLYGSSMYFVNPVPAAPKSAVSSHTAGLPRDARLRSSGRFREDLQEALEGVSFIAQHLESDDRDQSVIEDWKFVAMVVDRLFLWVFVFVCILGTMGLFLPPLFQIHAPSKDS
A further experiment addresses human α4β2 nAChRs (Homo sapiens, UniProt P17787+P43681). The experiment is described as follows: Photoaffinity labeling. Format: binding. The conditions noted are these: ∼1 nM probe, 254 nm, α4 or β2 subunit.
A further experiment concerns the target α4β2F119Q receptors (Homo sapiens, UniProt P17787+P43681, F144Q). It is filed as binding. Conditions: preincubation with 100 nM epibatidine.
The mark [4] stands for this setting: read-out: EC50 of activation, 5 oocytes.

Where two headings read alike, the source gives them in different places.

α4 with β2S113R nAChR, sequence (P43681 29-627 limits assumed): as the sequence (P43681 29-627, stated change not applied) above
α4 with β2S113R nAChR, sequence (P17787 26-502 S138R): as the sequence (P17787 26-502 F144Q) above, with S113R, Q119F counted along it
α4 with wild-type β2 nAChR, (α4)2(β2)3, sequence (P43681 29-627 limits assumed): as the sequence (P43681 29-627, stated change not applied) above
α4 with wild-type β2 nAChR, (α4)2(β2)3, sequence (P17787 26-502): as the sequence (P17787 26-502 F144Q) above, with Q119F counted along it
human α4β2 nAChRs, sequence (P17787 26-502): as the sequence (P17787 26-502 F144Q) above, with Q119F counted along it
human α4β2 nAChRs, sequence (P43681 29-627): as the sequence (P43681 29-627, stated change not applied) above
α4β2F119Q receptors, sequence (P43681 29-627, stated change not applied): as above
α4β2F119Q receptors, sequence (P17787 26-502 F144Q): as the sequence (P17787 26-502 F144Q) above

Take `Cl.Cl.Ic1cncc(OC[C@@H]2CCN2)c1` [5I-A-85380, 5-iodo-A-85380 dihydrochloride]: the EC50 (commonly the concentration needed to bring the measured effect to its halfway point) in experiment [1] (setting [4]) was 23 ± 2 nM; on α4 with β2S113R nAChR (read-out: EC50 of activation, 7 oocytes), 30 ± 7 nM; on α4 with β2F119Q nAChR (setting [4]) it was 338 ± 77 nM; in experiment [2], around 10 nM. Besides, the concentration for half-maximal inhibition (IC50) (usually the concentration that inhibits the measured activity by half) at α4β4 receptor was 24 nM. Also, the binding affinity in the experiment with α4β2 and α4β4 nAChRs is 0.062 to 24 nM. For the same compound, the maximal response result in experiment [2] (compared with ACh) was “larger than that for ACh itself”.

For the compound `Clc1ccc(C2CC3CCC2N3)cn1` (stereo not shown) [[^3H]epibatidine], in experiment [3], the Kd was 0.4 to 0.7 nM.

`CC(=O)OCC[N+](C)(C)C` [ACh, Acetylcholine chloride]: the “actual amplitude of the ACh response” value in experiment [1] (1 mM ACh, single oocyte trace) is given as -0.8 μA; at α4 with β2S113R nAChR (1 mM ACh, single oocyte trace), -3.3 μA; on α4 with β2F119Q nAChR (1 mM ACh, single oocyte trace) it was -0.03 μA.

On to `[125I]c1cncc(OCC2CCN2)c1` (stereo not shown) [5[^125I]A-85380], for which the pattern of photoincorporation entry is reported as “incorporated selectively into the β4 subunit” at rat α4β4 nAChRs (1 nM probe, 254 nm, 30 or 15 min) and “very little if any photoincorporation” on human α4β2 nAChRs.

Take `CN1CCC[C@H]1c1cccnc1` [nicotine]: the “effect on labeling by radiolabeled agonist” value on rat α4β4 nAChRs (15 min preincubation with 100 μM nicotine or 100 nM epibatidine) was “complete elimination of labeling”. Further, the “reduction of [125I]epibatidine labeling of β4 subunit and β4′ fragment” value at rat α4β4 nAChRs (co-application of 100 μM nicotine, γ-counting of excised gel bands) is recorded as above 50%.

As for `Ic1ccc(C2CC3CCC2N3)cn1` (stereo not shown) [iodoepibatidine], the binding affinity in the experiment on α4β2 and α4β4 nAChRs is 0.062 to 24 nM.

[^125I]epibatidine: at human α4β2 nAChRs, the pattern of photoincorporation entry is “very little if any photoincorporation”.

With `Clc1ccc(C2CC3CCC2N3)cn1` (stereo not shown) [epibatidine], the “effect on labeling by radiolabeled agonist” value at rat α4β4 nAChRs is “complete elimination of labeling”. The “effect on [125I]epibatidine labeling in the β2F119Q subunit” value at α4β2F119Q receptors is “completely eliminated labeling”.

(Values after paper PMC2744590 (Biochimica et biophysica acta, 2009).)
